The text below walks through data of PubChem BioAssay AID588356 (Sanford-Burnham Center for Chemical Genomics, 2011).

For the assay, the target named is Hexokinase-1 (Homo sapiens) (UniProt P19367). Nature of the assay: hexokinase 1 activity inhibitors, potency – biochemical, set 2, resazurin fluorescence coupled readout, selectivity assay for HKDC1 inhibitor project, SAR follow-up (AID 588356). The following applies: HK1 enzyme, G6PDH/diaphorase resazurin fluorescence.

Molecules are shown by their SMILES. Calls of active or inactive are those of the source.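 How the source made its calls: active means mean IC50 below 20 µM; inactive means the rest.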

Chain of Hexokinase-1 (Homo sapiens) (P19367 whole entry, looked up): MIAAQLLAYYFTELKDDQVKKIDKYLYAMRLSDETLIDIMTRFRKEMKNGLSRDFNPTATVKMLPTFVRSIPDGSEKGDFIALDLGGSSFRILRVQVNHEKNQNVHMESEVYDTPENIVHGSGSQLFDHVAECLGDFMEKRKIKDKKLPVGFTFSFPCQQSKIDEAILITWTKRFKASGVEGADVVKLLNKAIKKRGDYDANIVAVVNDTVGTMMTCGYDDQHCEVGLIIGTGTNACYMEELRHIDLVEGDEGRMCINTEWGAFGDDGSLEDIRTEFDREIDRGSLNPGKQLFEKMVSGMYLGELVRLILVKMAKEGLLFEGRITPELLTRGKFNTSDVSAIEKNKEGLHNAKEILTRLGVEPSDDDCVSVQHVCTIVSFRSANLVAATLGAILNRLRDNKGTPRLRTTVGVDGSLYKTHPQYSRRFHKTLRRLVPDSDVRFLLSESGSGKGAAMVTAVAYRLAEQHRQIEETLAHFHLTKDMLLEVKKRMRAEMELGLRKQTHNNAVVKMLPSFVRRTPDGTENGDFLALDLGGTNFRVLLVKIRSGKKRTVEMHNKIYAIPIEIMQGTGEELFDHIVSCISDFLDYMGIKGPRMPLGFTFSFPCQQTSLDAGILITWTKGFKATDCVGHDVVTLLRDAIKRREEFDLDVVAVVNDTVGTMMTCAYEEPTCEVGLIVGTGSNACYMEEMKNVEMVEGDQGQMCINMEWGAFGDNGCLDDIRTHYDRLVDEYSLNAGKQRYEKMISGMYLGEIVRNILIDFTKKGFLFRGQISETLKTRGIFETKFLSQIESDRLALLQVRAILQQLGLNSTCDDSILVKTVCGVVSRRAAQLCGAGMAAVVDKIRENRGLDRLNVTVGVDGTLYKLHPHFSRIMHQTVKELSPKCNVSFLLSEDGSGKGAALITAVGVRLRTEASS

For the compound `COc1cc2c(cc1OC)-c1cc(N3CCc4ccccc4C3)nc(=O)n1CC2`, the IC50 entry was “inactive”.
